Measured values reported in patent publication US20210290644A1, “COMPOUNDS AND METHODS FOR TREATING FUNGAL INFECTIONS” (Amplyx Pharmaceuticals, Inc., priority 2018, published 2021).
Values after ≈ are worked out from the molar mass of the structure shown. “Also recorded” adds a separate entry of the source. Like-named read-outs stand apart in the source and are kept apart here.

What was measured:
[1] = in vivo
Description: This was a Phase 1, first-in-human, randomized, double-blind, placebo-controlled single ascending dose (SAD) and multiple ascending dose (MAD) escalation study of 120 healthy male and female subjects. The objectives of the study were to evaluate the safety, tolerability, and pharmacokinetics of single and multiple doses of Compound 1 administered by intravenous (IV) infusion.
(§1) In the single ascending dose (SAD) phase, Cohorts 1 to 6 and 11A to 11D received single doses. For Cohorts 11A to 11D, the infusion time varied from 0.5 to 3 hours to evaluate the relationship between C., and tolerability. In the multiple ascending dose (MAD) phase, Cohorts 7 to 10 received multiple doses over 14 days, and Cohort 12 examined the feasibility of a loading dose regimen.
Blood samples for the determination of Compound 1 and Compound 1A plasma concentrations were collected before and at appropriate times during all single- and multiple-dose administrations of Compound 1. For SAD Cohorts 1 to 6, urine samples for the determination of Compound 1A were collected through 48 hrs after dosing.
Eighty (80) subjects were enrolled into SAD Cohorts 1 to 6 and 11A to 11D. Within each cohort, six subjects were randomized to Compound 1 and two subjects to placebo. All 60 subjects randomized to Compound 1 completed dosing. Fifty-nine (59) subjects completed the study.
Forty (40) subjects were enrolled into MAD Cohorts 7 to 10 and Loading Dose Cohort 12. Within each cohort, six subjects were randomized to Compound 1 and two subjects to placebo.
The PK analysis population therefore consisted of 60 subjects in the SAD phase and 28 subjects in the MAD phase.

[2] = Compound 1 pH solubility at room temperature; type: physicochemical
[3] = Compound 1 Injection 20 mg/mL batch analysis and stability (appearance, HPLC assay, related substances, pH, particulate matter); type: physicochemical; details: 72-hour stability data at 20 mg/mL
Experimental: The HPLC method used in the stability studies for Compound 1 Injections, 20 mg/mL is a specific and stability-indicating method used for the determination of assay, related substances, content uniformity, identification, and absence of Compound 1 in Compound 1 Injection at 20 mg/mL. The method is a gradient reverse phase HPLC system to measure assay, purity, and related substances. The assay (% w/w) is determined by comparing the peak response of the sample to that of a standard. The same HPLC method used for purity and related substances is used to measure related substances. Related substances to Compound 1 drug substance are reported as area percent. The area of an impurity is divided by the total area of all sample-related peaks. Related substances are reported by retention time relative to the parent peak (RRT).
Compound 1 Injection, 20 mg/mL, was prepared as a non-buffered solution suitable for Phase 1 clinical studies containing Compound 1, sodium chloride, and pH adjustment using hydrochloric acid and/or sodium hydroxide to pH 7.5. […] Samples have been analyzed for appearance, assay, related substance, and pH. Compound 1 Injection, engineering batch #707 manufactured under GMP was placed on an ICH stability program at 5° C. and 25° C./60% RH. Samples have been analyzed for appearance, assay, related substance, particulate matter, and pH. […]

[4] = Binary excipient compatibility study of Compound 1; type: physicochemical; details: binary mixtures, after 3 weeks at either storage condition
Experimental: For each excipient screened, there were […] (5° C., room temperature, 40° C./75% RH, 50° C.) that could be pulled at 3 weeks or 4 weeks as shown in Table 85. For contingency, one vial was stored at each condition per excipient. At each time point, an appropriate active sample control vial from each condition was reconstituted and analyzed in addition to the compatibility samples.

[5] = test system: Candida (C. albicans, C. glabrata, or C. auris); assay: PK-PD studies in immunocompromised mice infected with Candida (fungal burden, CFUs in the kidney); type: in vivo; details: dose fractionations
Experimental: In PK-PD studies, immunocompromised mice were infected with one of three spp. of Candida (C. albicans, C. glabrata, or C. auris) and groups of animals were dosed with Compound 1 at different dose fractionations. […] The stasis endpoint was defined as the quantity of Candida spp. in CFUs just prior to Compound 1 administration compared to CFUs at the endpoint of assessment (i.e., 24 hours for C. albicans; 96 hours for C. glabrata and C. auris).
In pharmacokinetic/pharmacodynamic (PK-PD) studies, immunocompromised mice were infected with one of three spp. of Candida (C. albicans, C. glabrata, or C. auris) and groups of animals were dosed with Compound 1 at different dose fractionations.

[6] = Study #2 Phase 1: pharmacokinetics after single IV and single/multiple oral doses of Compound 1, absolute oral bioavailability; details: Cohort 1A, Period A, 200 mg IV;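 also: phase 1 study design: one IV dose, then escalating single oral doses, fed versus fasted single oral dosing, and once-daily oral dosing over 14 days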
Description: In the single ascending dose (SAD) phase, subjects in Cohort 1a received a single IV dose in Period A and then rising single oral doses in Periods B to D. Subjects in Cohort 1b received a single oral dose under fed and fasted conditions in Periods E and F. Subjects in Cohorts 2 and 3 received once-daily oral doses for 14 days, as did subjects in Cohort 4 as part of an in vivo screen for drug-drug interaction (DDI) potential.
For SAD Cohorts 1a and 1b, urine samples for the determination of Compound 1A were collected through 48 hrs after dosing.
Forty-six (46) subjects were enrolled into the study, 8 in Cohort 1a, 10 in Cohort 1b, and 8 each in Cohorts 2 and 3.

[7] = Additional Phase 1 study of Compound 1: IV loading, IV maintenance, then oral through Day 42, safety; type: in vivo, human; details: 1000 mg IV 3-hour BID Day 1, 600 mg IV 3-hour QD Days 2-7, 800 mg orally QD Days 8-42
[8] = Study #1 Phase 1: safety and tolerability (TEAEs) of IV Compound 1
Experimental: This was a Phase 1, first-in-human, randomized, double-blind, placebo-controlled single ascending dose (SAD) and multiple ascending dose (MAD) escalation study of 120 healthy male and female subjects.
as §1

[9] = pH stability of Compound 1 in buffer solutions stored at 40° C.; type: physicochemical; details: buffer solutions pH 7-8, stored at 40° C., up to seven days
Experimental: The pH stability in buffer solutions were also evaluated for pH levels 7, 8, and 9 when stored at 40° C.

[10] = 100 mg sd oral treatment period
[11] = 300 mg sd oral treatment period
[12] = 500 mg sd oral treatment period
[13] = 1000 mg/0.5 hr IV single dose group
[14] = 1000 mg/1 hr IV single dose group
[15] = 1000 mg/2 hr IV single dose group
[16] = 1000 mg/3 hr IV single dose group
[17] = Cohort 12 loading dose regimen (1000 mg IV 2-hour twice on Day 1 + 600 mg IV 1-hr QD Days 2-7)

With `Nc1c(-c2cc(Cc3ccc(COc4ccccn4)cc3)no2)ccc[n+]1COP(=O)([O-])O` [Compound 1] the “exposures to the prodrug relative to those of the active Compound 1A” value ([1]; both, human, iv) was under 5%, the “time after start of infusion by which prodrug concentrations are <LOQ” value ([1]; both, human, iv) was “at most 8 hrs” and the “accumulation of prodrug following multiple dosing” value [1] was “essentially no accumulation”. The solubility ([2]; 50 mM phosphate buffer, pH 7.5, aqueous buffer, Study B, pH 7.5 (50 mM phosphate buffer)) was 141000 µg/mL (≈ 301 mM), the solubility ([2]; pH 1, simulated gastric fluid, Study A, pH 1) was 3830 µg/mL (≈ 8.18 mM) and the solubility ([2]; pH 3, aqueous buffer, Study A, pH 3) was 111 µg/mL (≈ 0.237 mM). The solubility ([2]; pH 4, aqueous buffer, Study A, pH 4) was 63 µg/mL (≈ 0.134 mM), the solubility ([2]; pH 5, aqueous buffer, Study A, pH 5) was 125 µg/mL (≈ 0.267 mM) and the solubility ([2]; pH 6, aqueous buffer, Study A, pH 6) was 758 µg/mL (≈ 1.62 mM). It also gave a solubility ([2]; pH 6.5, aqueous buffer, Study B, pH 6.5) of 4300 µg/mL (≈ 9.18 mM), a solubility ([2]; pH 7, aqueous buffer, Study A, pH 7, saturation not achieved) of over 17600 µg/mL and a solubility ([2]; pH 7, aqueous buffer, Study B, pH 7.0) of 53700 µg/mL (≈ 115 mM). It also gave a solubility ([2]; pH 7.5, aqueous buffer, Study A, pH 7.5, saturation not achieved) of over 28500 µg/mL, a solubility ([2]; pH 8.5, aqueous buffer, Study A, pH 8.5, saturation not achieved) of over 80000 µg/mL and a solubility ([2]; phosphate buffer, pH 7, aqueous buffer, Study B, pH 7.0 (with phosphate buffer)) of 20900 µg/mL (≈ 44.6 mM). The degradation [3] was under 0.10%, the “compatibility with excipients (total purity profile)” value [4] was “compatible with the tested excipients” and the “number of TEAEs” value [10] was 2 TEAEs. The “subjects reporting TEAEs” value [10] was 33%, the “number of TEAEs” value (200 mg sd IV treatment period) was 3 TEAEs and the “subjects reporting TEAEs” value (200 mg sd IV treatment period) was 50%. For the same compound, the “number of TEAEs” value [11] was 6 TEAEs, the “subjects reporting TEAEs” value [11] was 50% and the “number of TEAEs” value (500 mg md oral group) was 24 TEAEs. The “subjects reporting TEAEs” value (500 mg md oral group) was 83%, the “number of TEAEs” value [12] was 1 TEAE and the “subjects reporting TEAEs” value [12] was 17%. The safety and tolerability (1000 mg PO QD on Days 1 through 14) was “safe and well tolerated”, the “number of TEAEs” value (1000 mg md oral group) was 119 TEAEs and the “subjects reporting TEAEs” value (1000 mg md oral group) was 100%. The “deaths or SAEs” value (Study #2) was “no deaths or SAEs reported”, the “dose-limiting toxicities (DLTs)” value (Study #2) was “No DLTs were observed” and the “maximum tolerated dose (MTD)” value (Study #2) was “not determined/reached”. The safety and tolerability (all doses in Study #2) was “safe and well tolerated”, the tolerability (multiple oral doses of 500 mg and 1000 mg once daily for 14 consecutive days) was “well tolerated by the majority of subjects” and the tolerability (single IV doses of 200 mg and single oral doses 100 mg to 500 mg) was “well tolerated”. For the same compound, the “effect of dosing under fed conditions on tolerability” value (single-dose crossover food effect cohort, TEAEs related to Gastrointestinal and Nervous System Disorders) was “improve tolerability”, the “PK-PD variable that best correlated with antifungal efficacy (fungal burden, CFUs in the kidney)” value [5] was “AUC/MIC ratio” and the “time after IV infusion through which prodrug plasma concentrations were ≥LOQ” value [6] was at most 4 h. For the same compound, the safety and tolerability [7] was “safe and well tolerated”, the “number of TEAEs” value [8, 13] was 21 TEAEs and the “subjects reporting TEAEs” value [8, 13] was 100%. The “number of TEAEs” value [8, 14] was 25 TEAEs, the “subjects reporting TEAEs” value [8, 14] was 100% and the “number of TEAEs” value [8, 15] was 22 TEAEs. For the same compound, the “subjects reporting TEAEs” value [8, 15] was 100%, the “number of TEAEs” value [8, 16] was 13 TEAEs and the “subjects reporting TEAEs” value [8, 16] was 83%. The “number of TEAEs” value [8, 17] was 38 TEAEs, the “subjects reporting TEAEs” value [8, 17] was 100% and the “maximum tolerated dose (MTD)” value ([8]; Study #1 and Study #2) was “not determined/not reached”. The “severe TEAEs or SAEs” value ([8]; Study #1 and Study #2) was “no severe or very severe TEAEs or SAEs reported”, the dose-limiting toxicities ([8]; Study #1 and Study #2 (two Phase 1 studies)) was “no dose-limiting toxicities observed; also recorded: No DLTs were observed” and the tolerability ([8]; all single and multiple IV and oral doses, Study #1 and Study #2) was “well tolerated”. For the same compound, the safety and tolerability ([8]; faster infusions (single dose: 2, 1 and 0.5 hrs; multiple dose: 1 hr)) was “safe and well tolerated”, the safety and tolerability ([8]; loading dose 1000 mg IV twice on Day 1 (2-hr infusion), maintenance 600 mg QD) was “safe and well tolerated” and the tolerability ([8]; multiple IV doses up to 600 mg once daily for 14 consecutive days) was “well tolerated by the majority of subjects”. The tolerability ([8]; single IV doses up to 350 mg over 3 hours and 1000 mg over 0.5-, 1-, 2-, 3-hour infusions) was “well tolerated” and the change in potency [9] was under 3%.
